Results from US10392368B2, “Pyrazolo and triazolo bicyclic compounds as JAK kinase inhibitors” (THERAVANCE BIOPHARMA R&D IP, LLC, priority 2017, dated 2019).
Like-named read-outs stand apart in the source and are kept apart here.

Legend:
[1] = target: T1, JAK3 (Homo sapiens, UniProt P52333); assay: Biochemical JAK3 kinase assay (LanthaScreen); parameters: GST; purchased Life Technologies; settings: for Ki: read-out: JAK 3 (pKi) (converted)
T1 sequence (P52333 1-1124): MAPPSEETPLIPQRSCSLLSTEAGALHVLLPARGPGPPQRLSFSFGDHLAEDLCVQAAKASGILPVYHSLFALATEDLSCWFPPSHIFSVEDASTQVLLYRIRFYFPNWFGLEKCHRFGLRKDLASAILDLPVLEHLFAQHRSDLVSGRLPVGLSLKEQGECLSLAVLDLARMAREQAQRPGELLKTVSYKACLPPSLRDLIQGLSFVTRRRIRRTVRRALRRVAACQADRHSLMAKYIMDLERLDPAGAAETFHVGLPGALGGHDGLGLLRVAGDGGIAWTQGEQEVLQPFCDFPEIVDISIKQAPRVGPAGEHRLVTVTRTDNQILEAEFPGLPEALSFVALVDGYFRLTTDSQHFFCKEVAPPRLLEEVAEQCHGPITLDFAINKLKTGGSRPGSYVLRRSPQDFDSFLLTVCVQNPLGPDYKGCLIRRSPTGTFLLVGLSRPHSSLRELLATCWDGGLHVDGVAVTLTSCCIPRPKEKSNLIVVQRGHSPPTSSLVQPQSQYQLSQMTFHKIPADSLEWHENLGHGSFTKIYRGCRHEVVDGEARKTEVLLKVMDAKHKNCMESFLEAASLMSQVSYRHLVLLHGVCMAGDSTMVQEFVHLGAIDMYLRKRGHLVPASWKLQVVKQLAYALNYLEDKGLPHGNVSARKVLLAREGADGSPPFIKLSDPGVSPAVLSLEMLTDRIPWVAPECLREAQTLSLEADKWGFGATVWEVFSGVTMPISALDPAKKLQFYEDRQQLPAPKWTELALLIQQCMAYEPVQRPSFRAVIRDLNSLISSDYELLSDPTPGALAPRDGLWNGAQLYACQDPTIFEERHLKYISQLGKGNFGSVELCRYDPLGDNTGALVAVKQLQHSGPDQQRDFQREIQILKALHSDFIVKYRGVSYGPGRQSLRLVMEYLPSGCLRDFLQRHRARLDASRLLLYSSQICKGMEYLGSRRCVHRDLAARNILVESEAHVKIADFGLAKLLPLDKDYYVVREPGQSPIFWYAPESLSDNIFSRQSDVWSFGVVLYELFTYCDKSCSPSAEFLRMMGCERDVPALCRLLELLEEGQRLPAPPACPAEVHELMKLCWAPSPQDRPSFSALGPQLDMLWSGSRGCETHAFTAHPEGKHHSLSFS
Procedure, shortened: (§1)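 Compounds were preincubated with the GST-tagged kinase and GFP-labelled STAT1 peptide for one hour before ATP initiated a one-hour reaction at ambient temperature. Phosphorylation was quantified by TR-FRET with a Tb-labelled pTyr701 antibody. Ki values were derived from IC50 using Cheng-Prusoff.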

[2] = test system: IL-2 stimulated pSTAT5 in Tall-1 T cells; assay: Cellular JAK3 potency assay: inhibition of IL-2 stimulated pSTAT5 in Tall-1 T cells; assay type: cell-based, human; settings: for IC50: Homo sapiens, read-out: Tall-1 (pIC50) (converted)
Procedure, shortened: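 In human Tall-1 T cells, IL-2 (300 ng/ml final, 30 min) drives STAT5 phosphorylation after a 1 h compound pretreatment. Lysates are assayed for pSTAT5 by AlphaLisa, and IC50 derived from signal versus concentration is expressed as pIC50.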

[3] = target: T2, JAK2 (Homo sapiens, UniProt O60674); assay: Biochemical JAK2 kinase assay (LanthaScreen); settings: for Ki: read-out: JAK 2 (pKi) (converted)
T2 construct: GST; purchased Life Technologies
T2 sequence (O60674 whole entry): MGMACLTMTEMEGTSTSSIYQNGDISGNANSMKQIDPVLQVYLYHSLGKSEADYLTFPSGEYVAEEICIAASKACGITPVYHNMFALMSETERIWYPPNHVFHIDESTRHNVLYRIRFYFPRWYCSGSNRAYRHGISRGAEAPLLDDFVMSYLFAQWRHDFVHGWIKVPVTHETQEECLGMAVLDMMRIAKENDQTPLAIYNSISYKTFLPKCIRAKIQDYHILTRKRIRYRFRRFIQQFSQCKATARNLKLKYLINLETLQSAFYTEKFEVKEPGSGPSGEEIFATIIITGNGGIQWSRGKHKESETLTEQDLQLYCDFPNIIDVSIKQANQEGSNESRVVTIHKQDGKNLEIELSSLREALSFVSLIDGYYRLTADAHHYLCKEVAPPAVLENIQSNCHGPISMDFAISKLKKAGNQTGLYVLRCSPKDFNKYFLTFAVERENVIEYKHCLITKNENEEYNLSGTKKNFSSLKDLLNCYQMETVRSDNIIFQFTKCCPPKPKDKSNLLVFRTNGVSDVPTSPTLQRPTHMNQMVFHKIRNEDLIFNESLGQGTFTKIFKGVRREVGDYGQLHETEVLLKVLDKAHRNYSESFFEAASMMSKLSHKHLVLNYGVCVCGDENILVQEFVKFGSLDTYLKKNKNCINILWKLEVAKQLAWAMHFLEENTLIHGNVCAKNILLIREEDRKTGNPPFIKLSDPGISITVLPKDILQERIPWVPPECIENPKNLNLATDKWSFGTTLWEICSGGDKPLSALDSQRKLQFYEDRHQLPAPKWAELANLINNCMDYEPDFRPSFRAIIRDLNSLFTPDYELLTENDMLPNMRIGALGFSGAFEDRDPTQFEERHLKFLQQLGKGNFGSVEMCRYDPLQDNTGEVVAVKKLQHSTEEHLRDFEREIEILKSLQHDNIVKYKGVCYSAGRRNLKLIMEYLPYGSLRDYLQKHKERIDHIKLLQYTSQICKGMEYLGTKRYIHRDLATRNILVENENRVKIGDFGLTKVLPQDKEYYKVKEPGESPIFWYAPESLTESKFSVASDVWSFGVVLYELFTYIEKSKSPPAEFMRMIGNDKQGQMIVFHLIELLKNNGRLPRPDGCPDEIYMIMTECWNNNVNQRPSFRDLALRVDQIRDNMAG
Procedure: (§2) A panel of four LanthaScreen JAK biochemical assays (JAK1, 2, 3 and Tyk2) were carried in a common kinase reaction buffer (50 mM HEPES, pH 7.5, 0.01% Brij-35, 10 mM MgCl2, and 1 mM EGTA). Recombinant GST-tagged JAK enzymes and a GFP-tagged STAT1 peptide substrate were obtained from Life Technologies.
(§3) Serially or discretely diluted compounds were pre-incubated with each of the four JAK enzymes and the substrate in white 384-well microplates (Corning) at ambient temperature for 1 h. ATP was subsequently added to initiate the kinase reactions in 10 μL total volume, with 1% DMSO. […] Kinase reactions were allowed to proceed for 1 hour at ambient temperature before a 10 μL preparation of EDTA (10 mM final concentration) and Tb-anti-pSTAT1 (pTyr701) antibody (Life Technologies, 2 nM final concentration) in TR-FRET dilution buffer (Life Technologies) was added. The plates were allowed to incubate at ambient temperature for 1 h before being read on the EnVision reader (Perkin Elmer).
(§4) For dose-response analysis, percent inhibition data were plotted vs. compound concentrations, and IC50 values were determined from a 4-parameter robust fit model with the Prism software (GraphPad Software). Results were expressed as pIC50 (negative logarithm of IC50) and subsequently converted to pKi (negative logarithm of dissociation constant, Ki) using the Cheng-Prusoff equation.

[4] = target: T3, JAK1 (Homo sapiens, UniProt P23458); assay: Biochemical JAK1 kinase assay (LanthaScreen); settings: for Ki: read-out: JAK 1 (pKi) (converted)
T3 construct: GST; purchased Life Technologies
T3 sequence (P23458 whole entry): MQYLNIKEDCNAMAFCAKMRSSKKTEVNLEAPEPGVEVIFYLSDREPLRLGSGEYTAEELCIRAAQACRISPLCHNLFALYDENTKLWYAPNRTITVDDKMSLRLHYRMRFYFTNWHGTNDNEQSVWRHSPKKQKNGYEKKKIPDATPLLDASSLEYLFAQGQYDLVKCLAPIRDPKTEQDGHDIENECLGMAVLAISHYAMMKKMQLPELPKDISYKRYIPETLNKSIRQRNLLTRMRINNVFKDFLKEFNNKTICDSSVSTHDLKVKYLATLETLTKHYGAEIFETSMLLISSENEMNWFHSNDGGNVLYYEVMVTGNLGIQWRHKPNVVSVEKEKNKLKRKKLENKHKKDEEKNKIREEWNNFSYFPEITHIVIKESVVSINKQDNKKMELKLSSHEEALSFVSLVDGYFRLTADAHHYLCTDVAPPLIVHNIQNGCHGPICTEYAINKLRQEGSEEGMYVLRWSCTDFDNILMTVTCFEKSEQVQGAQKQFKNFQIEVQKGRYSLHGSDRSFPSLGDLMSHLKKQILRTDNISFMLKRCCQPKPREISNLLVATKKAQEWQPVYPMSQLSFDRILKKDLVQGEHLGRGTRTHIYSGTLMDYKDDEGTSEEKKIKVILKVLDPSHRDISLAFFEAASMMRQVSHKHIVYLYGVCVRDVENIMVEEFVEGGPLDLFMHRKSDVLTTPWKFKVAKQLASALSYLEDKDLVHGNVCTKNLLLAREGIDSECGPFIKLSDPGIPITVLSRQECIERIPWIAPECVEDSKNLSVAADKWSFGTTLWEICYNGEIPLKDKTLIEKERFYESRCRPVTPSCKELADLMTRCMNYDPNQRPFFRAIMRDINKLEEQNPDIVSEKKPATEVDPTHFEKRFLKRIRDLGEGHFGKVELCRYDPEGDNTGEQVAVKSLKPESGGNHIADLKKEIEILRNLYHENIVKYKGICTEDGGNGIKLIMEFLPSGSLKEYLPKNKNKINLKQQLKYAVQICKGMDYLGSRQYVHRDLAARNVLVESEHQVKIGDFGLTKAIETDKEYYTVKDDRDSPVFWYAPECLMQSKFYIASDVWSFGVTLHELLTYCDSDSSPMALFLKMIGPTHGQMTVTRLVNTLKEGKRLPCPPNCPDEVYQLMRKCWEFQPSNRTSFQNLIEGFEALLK
Procedure, shortened: as §1

[5] = target: T4, Tyk2 (Homo sapiens, UniProt P29597); assay: Biochemical Tyk2 kinase assay (LanthaScreen); settings: for Ki: read-out: Tyk 2 (pKi) (converted)
T4 construct: GST; purchased Life Technologies
T4 sequence (P29597 whole entry): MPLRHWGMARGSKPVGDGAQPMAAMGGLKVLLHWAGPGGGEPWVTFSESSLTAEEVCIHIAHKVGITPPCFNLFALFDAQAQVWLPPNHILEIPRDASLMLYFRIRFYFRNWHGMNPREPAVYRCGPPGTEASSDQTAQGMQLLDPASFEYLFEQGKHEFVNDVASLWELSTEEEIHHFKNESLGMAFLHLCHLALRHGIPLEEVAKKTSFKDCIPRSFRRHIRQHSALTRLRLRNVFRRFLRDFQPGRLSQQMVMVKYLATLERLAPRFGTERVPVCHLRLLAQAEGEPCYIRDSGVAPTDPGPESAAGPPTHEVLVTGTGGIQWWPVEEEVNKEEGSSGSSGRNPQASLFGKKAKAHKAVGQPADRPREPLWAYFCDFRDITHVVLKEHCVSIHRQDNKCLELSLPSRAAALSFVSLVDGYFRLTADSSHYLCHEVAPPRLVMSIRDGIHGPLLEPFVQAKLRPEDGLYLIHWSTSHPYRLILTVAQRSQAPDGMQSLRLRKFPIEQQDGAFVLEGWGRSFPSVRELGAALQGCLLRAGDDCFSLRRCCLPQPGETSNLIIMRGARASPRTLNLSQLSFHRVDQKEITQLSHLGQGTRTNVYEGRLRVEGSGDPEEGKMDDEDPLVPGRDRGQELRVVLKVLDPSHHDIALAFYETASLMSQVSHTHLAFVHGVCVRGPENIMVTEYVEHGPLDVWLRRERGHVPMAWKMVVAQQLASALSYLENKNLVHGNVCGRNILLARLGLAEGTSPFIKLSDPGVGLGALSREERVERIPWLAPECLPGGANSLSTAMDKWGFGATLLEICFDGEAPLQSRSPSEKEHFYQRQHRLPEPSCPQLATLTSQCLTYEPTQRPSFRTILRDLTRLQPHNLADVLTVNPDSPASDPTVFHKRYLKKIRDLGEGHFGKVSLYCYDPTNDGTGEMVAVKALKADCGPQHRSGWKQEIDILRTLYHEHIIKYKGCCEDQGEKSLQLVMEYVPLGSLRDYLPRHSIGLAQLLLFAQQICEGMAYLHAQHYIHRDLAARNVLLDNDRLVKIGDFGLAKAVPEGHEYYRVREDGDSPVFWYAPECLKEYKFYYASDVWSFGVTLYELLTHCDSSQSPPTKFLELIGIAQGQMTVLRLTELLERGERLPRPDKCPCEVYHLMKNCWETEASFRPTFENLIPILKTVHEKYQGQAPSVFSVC
Procedure: as §2
as §3, with “Elmer). Emission ratio signals (520 nm/495 nm) were recorded and utilized to calculate the percent inhibition values based on DMSO and background controls.” for “Elmer).”
as §4

[6] = selectivity: difference of pKi JAK3 and pKi JAK1
[7] = TALL-1, IL-2 stimulated pSTAT5 in Tall-1 T cells
[8] = selectivity JAK3 over JAK1, difference of pKi
[9] = TALL-1, IL-2 stimulated pSTAT5, Tall-1 T cells
[10] = IL-2 stimulated pSTAT5 in Tall-1 T cells
[11] = IL-2 stimulated pSTAT5, Tall-1 T cells

Compound	Ki [1]	JAK3 (pKi)-JAK1 (pKi) [1, 6]	IC50 [2, 7]	Ki [3]	Ki [4]	Ki [5]	JAK3 (pKi)-JAK1 (pKi) [1, 8]	IC50 [2, 9]	JAK 3 (pKi) [1]	Tall-1 (pIC50) [2, 10]	JAK 2 (pKi) [3]	JAK 1 (pKi) [4]	Tyk 2 (pKi) [5]	Tall-1 (pIC50) [2, 11]
C=CC(=O)N1CC(COc2cc(-c3ccc(O)c(OC)c3)cc3[nH]ncc23)C1 [Compound 3-83]	< 0.1 nM	A (a value of 3 or above)	< 31.6 nM	> 100 nM	> 100 nM	> 100 nM								
C=CC(=O)N1CCC(N(C)c2cc(-c3ccc(O)c(F)c3)cc3[nH]ncc23)CC1 [Compound 7-9]	< 0.1 nM			10 to 100 nM	> 100 nM	> 100 nM	A (a value of 3 or above)	< 31.6 nM						
C=CC(=O)N1CC[C@H](COc2nc(-c3ccc(O)c(F)c3)cc3[nH]ncc23)C1 [Compound 2-10]		A (a value of 3 or above)							B (a pKi value between 9 and 10 (Ki between 1 nM and 0.1 nM))	A (a pIC50 value≥7.5 (IC50≤32 nM))	D (a pKi value between 7 and 8 (Ki between 100 nM and 10 nM))	E (a pKi value of 7 or below (Ki of 100 nM or above))	E (a pKi value of 7 or below (Ki of 100 nM or above))	
C=CC(=O)N1CC(OCc2cc(-c3ccc(O)c(Cl)c3)cc3[nH]ncc23)C1 [Compound 16-2]							A (a value of 3 or above)		A (a pKi value≥10 (Ki≤0.1 nM))		E (a pKi value of 7 or below (Ki of 100 nM or above))	E (a pKi value of 7 or below (Ki of 100 nM or above))	E (a pKi value of 7 or below (Ki of 100 nM or above))	A (a pIC50 value≥7.5 (IC50≤32 nM))
C=CC(=O)N1CCC(Oc2cc(-c3ccc(O)c(Cl)c3)cc3[nH]ncc23)CC1 [Compound 6-13]							B (a value of 2.3 to 3)		B (a pKi value between 9 and 10 (Ki between 1 nM and 0.1 nM))		D (a pKi value between 7 and 8 (Ki between 100 nM and 10 nM))	E (a pKi value of 7 or below (Ki of 100 nM or above))	E (a pKi value of 7 or below (Ki of 100 nM or above))	A (a pIC50 value≥7.5 (IC50≤32 nM))
C=CC(=O)N1CC(COc2nc(-c3ccc(O)c(F)c3)nc3[nH]ncc23)C1 [Compound 3-39]	< 0.1 nM	A (a value of 3 or above)	31.6 to 200 nM	> 100 nM	> 100 nM	> 100 nM								
CN(C)C/C=C/C(=O)N1CC(OCc2nc(-c3ccc(O)cc3)cc3[nH]ncc23)C1 [Compound 16-6]							A (a value of 3 or above)		B (a pKi value between 9 and 10 (Ki between 1 nM and 0.1 nM))		E (a pKi value of 7 or below (Ki of 100 nM or above))	E (a pKi value of 7 or below (Ki of 100 nM or above))	E (a pKi value of 7 or below (Ki of 100 nM or above))	C (a pIC50 value between 6 and 6.7 (IC50 between 1 μM and 200 nM))
C=CC(=O)N1CC[C@H](Oc2cc(-c3ccc(O)cc3)cc3[nH]nc(Cl)c23)C1 [Compound 1-47]		B (a value of 2.3 to 3)							B (a pKi value between 9 and 10 (Ki between 1 nM and 0.1 nM))	B (a pIC50 value between 6.7 (included) and 7.5 (IC50 between 200 nM and 32 nM))	E (a pKi value of 7 or below (Ki of 100 nM or above))	E (a pKi value of 7 or below (Ki of 100 nM or above))	E (a pKi value of 7 or below (Ki of 100 nM or above))	
C=CC(=O)N1CC[C@H](Oc2cc(-c3cc(F)c(O)cc3C)cc3[nH]ncc23)C1 [Compound 1-16]	0.1 to 1 nM	B (a value of 2.3 to 3)	31.6 to 200 nM	10 to 100 nM	> 100 nM	> 100 nM								
C=CC(=O)N1CC[C@H](COc2cc(-c3ccc(O)cc3)cc3[nH]nnc23)C1 [Compound 23, (S)-1-(3-(((6-(4-hydroxyphenyl)-1H-benzo[d][1,2,3]triazol-4-yl)oxy)methyl)pyrrolidin-1-yl)prop-2-en-1-one]	< 0.1 nM	A (a value of 3 or above)	31.6 to 200 nM	10 to 100 nM	> 100 nM	> 100 nM								
C=CC(=O)N1CCC(C)(Oc2cc(-c3ccc(O)cc3)cc3[nH]ncc23)CC1 [Compound 6-3]	0.1 to 1 nM			10 to 100 nM	> 100 nM	> 100 nM	A (a value of 3 or above)	< 31.6 nM						
CN(C)C/C=C/C(=O)N1CC[C@H](Oc2cc(-c3ccc(O)cc3)cc3[nH]ncc23)C1 [Compound 1-1]	0.1 to 1 nM	A (a value of 3 or above)		10 to 100 nM	> 100 nM	> 100 nM								
